The subject of one assay is PKC. The experiment in a line: PKC activity by western blot of phosphorylated pan-PKC substrates. The format is cell-based, human. The following applies: Go6983 5 μM, HEK293/GC-A^+/AT1^+ cells.
The test system of assay [1] is HEK293/GC-A^+/AT1^+ cells. The experiment in a line: Intracellular cGMP generation in HEK293/GC-A+/AT1+ cells. The format is cell-based, human. The following applies: ANP 10^−8 M, ANGII 10^−8 M.

Each structure is given as a SMILES string.

As to `COc1ccc2c(c1)c(C1=C(c3c[nH]c4ccccc34)C(=O)NC1=O)cn2CCCN(C)C` [Go6983], the “PKC activity, phosphorylated status of pan-PKC substrates” value in the assay on PKC is “effectively inhibited PKC activity”. For the same molecule, the “Rescue of the suppression effect of ANGII on ANP-induced cGMP” value in assay [1] (Go6983 5 μM) is on record as “significantly rescued”.

For `CCCCC(=O)N(Cc1ccc(-c2ccccc2-c2nnn[nH]2)cc1)[C@H](C(=O)O)C(C)C` [valsartan], in assay [1] (valsartan 1 μM), the “Rescue of the suppression effect of ANGII on ANP-induced cGMP” value was “significantly rescued”.

The record behind these values is PMC9901178 (bioRxiv, 2023).
